# Test results: PubChem BioAssay AID328 (DTP/NCI, 2004)
# Where “and” joins values, the source holds several entries; their conditions need not be identical. Equal values may be shown once. Toxic doses and inconclusive results are not listed.
# System: BDF1 mice, P388 leukemia ip, median survival T/C
# Experiment: NCI In Vivo Anticancer Drug Screen. Data for tumor model P388 Leukemia (intraperitoneal) in B6D2F1 (BDF1) mice
# Conditions: endpoint: median survival time, higher = longer survival
# Protocol: The antitumor activity of compounds was measured in mice bearing transplantable tumors. Survival or tumor size were measured and the results are expressed as the measurement made in the treated group (T) divided by the measurement made in the vehicle treated control group (C). The tumor model used in this assay is P388 Leukemia (intraperitoneal) in B6D2F1 (BDF1) mice
# [1] = dose: 50.0 mg/kg/injection, schedule: Q01DX009 (ip), vehicle: saline with Tween-80
# [2] = dose: 100.0 mg/kg/injection, schedule: Q01DX009 (ip), vehicle: saline with Tween-80
# [3] = dose: 100.0 mg/kg/injection, schedule: Q01DX001 (ip), vehicle: saline with Tween-80
# [4] = dose: 200.0 mg/kg/injection, schedule: Q01DX001 (ip), vehicle: saline with Tween-80
# [5] = dose: 400.0 mg/kg/injection, schedule: Q01DX001 (ip), vehicle: saline with Tween-80
# [6] = dose: 100.0 mg/kg/injection, schedule: Q01DX009 (ip), vehicle: Klucel (hydroxypropylcellulose) (HPC)
# [7] = dose: 200.0 mg/kg/injection, schedule: Q01DX009 (ip), vehicle: Klucel (hydroxypropylcellulose) (HPC)
compound,measurement,setting,value
C=CC[NH-].C=CC[NH-].CC(=O)CC(C)=O.CC(=O)CC(C)=O.[Ni+2],T/C,"dose: 6.25 mg/kg/injection, schedule: Q04DX002 (ip), vehicle: saline",107 % of control
same,T/C,"dose: 12.5 mg/kg/injection, schedule: Q04DX002 (ip), vehicle: saline",100 % of control
same,T/C,"dose: 25.0 mg/kg/injection, schedule: Q04DX002 (ip), vehicle: saline",117 % of control
C=C(C)C(=O)NCC(=O)NC(Cc1ccccc1)C(=O)Oc1ccc([N+](=O)[O-])cc1 (stereo not drawn),T/C,"dose: 25.0 mg/kg/injection, schedule: Q01DX009 (ip), vehicle: saline with Tween-80",97 % of control
same,T/C,[1],101 % of control
same,T/C,[2],99 % of control
Cc1cccc(Nc2sc(C(=O)c3cc4cc(Cl)ccc4o3)c(N)c2C#N)c1,T/C,[1],108 % of control
same,T/C,[2],102 % of control
same,T/C,"dose: 200.0 mg/kg/injection, schedule: Q01DX009 (ip), vehicle: saline with Tween-80",111 % of control
O=C1NC(c2ccccc2)(c2ccccc2)C(=O)N1CCN(CCCl)CCCl,T/C,"dose: 6.1 mg/kg/injection, schedule: Q04DX003 (ip), vehicle: saline with Tween-80",100 % of control
same,T/C,"dose: 14.0 mg/kg/injection, schedule: Q04DX003 (ip), vehicle: saline",150 % of control
same,T/C,"dose: 21.0 mg/kg/injection, schedule: Q04DX003 (ip), vehicle: saline",190 % of control
same,T/C,"dose: 33.0 mg/kg/injection, schedule: Q04DX003 (ip), vehicle: saline with Tween-80",154 % of control and 168 % of control
same,T/C,"dose: 50.0 mg/kg/injection, schedule: Q04DX003 (ip), vehicle: saline with Tween-80",181 % of control and 200 % of control
COc1cc(/C=C\C(=O)c2ccc(F)cc2)cc(OC)c1OC,T/C,[3],98 % of control
same,T/C,[4],96 % of control
same,T/C,[5],100 % of control
Nc1ccc(CCc2ccc(N)cc2[N+](=O)[O-])c([N+](=O)[O-])c1,T/C,[6],100 % of control
same,T/C,[7],100 % of control
same,T/C,"dose: 400.0 mg/kg/injection, schedule: Q01DX009 (ip), vehicle: Klucel (hydroxypropylcellulose) (HPC)",100 % of control
C[C@H]1CC2=CC(=O)CC[C@]2(C)[C@H]2CC[C@@]3(C)[C@@H](CC[C@]3(C)O)[C@H]12,T/C,[6],100 % of control
same,T/C,"dose: 100.0 mg/kg/injection, schedule: Q04DX003 (ip), vehicle: Klucel (hydroxypropylcellulose) (HPC)",100 % of control
same,T/C,[7],105 % of control
same,T/C,"dose: 200.0 mg/kg/injection, schedule: Q04DX003 (ip), vehicle: Klucel (hydroxypropylcellulose) (HPC)",95 % of control
same,T/C,"dose: 400.0 mg/kg/injection, schedule: Q04DX003 (ip), vehicle: Klucel (hydroxypropylcellulose) (HPC)",100 % of control
CC(C)(C)c1cc(Br)c(N)c(C(O)(C(F)(F)F)C(F)(F)F)c1,T/C,[3],105 % of control
same,T/C,[4],109 % of control
same,T/C,[5],111 % of control
